Experimental findings from PubChem BioAssay (NCI) are described below.

Molecules are shown by their SMILES.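 Step 1: Grow cells in 96-well plates. Step 2: Expose to compound for 48 hours at 5 concentrations. Step 3: Interpolate endpoints linearly; if unreached, use highest concentration. TGI marks complete inhibition of growth.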

One test has as its system SK-MEL-5 melanoma. Kind of test: inhibition of tumour cell growth, NCI panel, 48 h.
Turning to `CC(C)(CN1CCCCC1)C(=O)/C=C/c1ccc(Br)cc1`, the TGI amounted to 12.6 µM.

`Cc1ccccc1C(CCCO)C(=O)O` (stereo unspecified) came in with a TGI above 100 µM.

With `COc1ccc(-c2c(C3=NCCCN3)nnn2-c2ccccc2)cc1`, the TGI was above 100 µM.

A further test has as its system SF-295 CNS. Kind of test: inhibition of tumour cell growth, NCI panel, 48 h.
Consider `CC(C)(CN1CCCCC1)C(=O)/C=C/c1ccc(Br)cc1`, for which the TGI is 17.4 µM.

Consider `COc1ccc2c(C(=O)O)cc3ccccc3c2c1OC`, for which the TGI is above 100 µM.

`Cc1ccccc1C(CCCO)C(=O)O` (stereo unspecified) returned a TGI above 100 µM.

For the compound `COc1ccc(-c2c(C3=NCCCN3)nnn2-c2ccccc2)cc1`, the TGI is above 100 µM.

The test system of a further test is OVCAR-8 ovarian. Kind of test: inhibition of tumour cell growth, NCI panel, 48 h.
For `CC(C)(CN1CCCCC1)C(=O)/C=C/c1ccc(Br)cc1`, the TGI was found to be 6.98 µM.

Turning to `COc1ccc2c(C(=O)O)cc3ccccc3c2c1OC`, the TGI was determined as 56.8 µM.

Consider `Cc1ccccc1C(CCCO)C(=O)O` (stereo unspecified), for which the TGI is above 100 µM.

In the case of `COc1ccc(-c2c(C3=NCCCN3)nnn2-c2ccccc2)cc1`, the TGI is above 100 µM.

The next test deals with COLO 205 colon. Put plainly: inhibition of tumour cell growth, NCI panel, 48 h.
With `CC(C)(CN1CCCCC1)C(=O)/C=C/c1ccc(Br)cc1`, the TGI was 5.56 µM.

Take `COc1ccc2c(C(=O)O)cc3ccccc3c2c1OC`: the TGI worked out at 44.2 µM.

`Cc1ccccc1C(CCCO)C(=O)O` (stereo unspecified) yielded a TGI above 100 µM.

`COc1ccc(-c2c(C3=NCCCN3)nnn2-c2ccccc2)cc1` came in with a TGI above 100 µM.

In the next test the test system is NCI-H460 lung. Kind of test: inhibition of tumour cell growth, NCI panel, 48 h.
For the compound `CC(C)(CN1CCCCC1)C(=O)/C=C/c1ccc(Br)cc1`, the TGI was above 20.4 µM.

Consider `Cc1ccccc1C(CCCO)C(=O)O` (stereo unspecified), for which the TGI was above 100 µM.

`COc1ccc(-c2c(C3=NCCCN3)nnn2-c2ccccc2)cc1`: the TGI was above 100 µM.

The next test concerns NCI-H23 lung. Kind of test: inhibition of tumour cell growth, NCI panel, 48 h.
`CC(C)(CN1CCCCC1)C(=O)/C=C/c1ccc(Br)cc1`: the TGI was 9.11 µM.

For `COc1ccc2c(C(=O)O)cc3ccccc3c2c1OC`, the TGI is 48 µM.

`Cc1ccccc1C(CCCO)C(=O)O` (stereo unspecified) showed a TGI above 100 µM.

As to `COc1ccc(-c2c(C3=NCCCN3)nnn2-c2ccccc2)cc1`, the TGI was above 100 µM.

A further test deals with SK-MEL-28 melanoma. Put plainly: inhibition of tumour cell growth, NCI panel, 48 h.
Take `CC(C)(CN1CCCCC1)C(=O)/C=C/c1ccc(Br)cc1`: the TGI was 11.7 µM.

For `COc1ccc2c(C(=O)O)cc3ccccc3c2c1OC`, the TGI worked out at 33.6 µM.

`Cc1ccccc1C(CCCO)C(=O)O` (stereo unspecified) showed a TGI above 100 µM.

`COc1ccc(-c2c(C3=NCCCN3)nnn2-c2ccccc2)cc1` gave a TGI above 100 µM.

The subject of another test is XF 498 CNS. Put plainly: inhibition of tumour cell growth, NCI panel, 48 h.
In the case of `CC(C)(CN1CCCCC1)C(=O)/C=C/c1ccc(Br)cc1`, the TGI turned out to be 6.21 µM.

`COc1ccc2c(C(=O)O)cc3ccccc3c2c1OC` yielded a TGI of 29.2 µM.

`Cc1ccccc1C(CCCO)C(=O)O` (stereo unspecified) gave a TGI above 100 µM.

Consider `COc1ccc(-c2c(C3=NCCCN3)nnn2-c2ccccc2)cc1`, for which the TGI was above 100 µM.

The subject of a further test is HOP-18 NSCLC. Kind of test: inhibition of tumour cell growth, NCI panel, 48 h.
`CC(C)(CN1CCCCC1)C(=O)/C=C/c1ccc(Br)cc1` came in with a TGI of 6.83 µM.

The compound `COc1ccc2c(C(=O)O)cc3ccccc3c2c1OC` yielded a TGI of 28.9 µM.

`COc1ccc(-c2c(C3=NCCCN3)nnn2-c2ccccc2)cc1`: the TGI was above 100 µM.

For a further test, the system named is SW-620 colon. Kind of test: inhibition of tumour cell growth, NCI panel, 48 h.
As for `CC(C)(CN1CCCCC1)C(=O)/C=C/c1ccc(Br)cc1`, the TGI is 6.83 µM.

In turn, `COc1ccc2c(C(=O)O)cc3ccccc3c2c1OC` yielded a TGI of 36.4 µM.

For the compound `Cc1ccccc1C(CCCO)C(=O)O` (stereo unspecified), the TGI is above 100 µM.

Compound `COc1ccc(-c2c(C3=NCCCN3)nnn2-c2ccccc2)cc1` returned a TGI above 100 µM.

In another test the test system is HL-60(TB) leukemia. Put plainly: inhibition of tumour cell growth, NCI panel, 48 h.
Consider `CC(C)(CN1CCCCC1)C(=O)/C=C/c1ccc(Br)cc1`, for which the TGI is 5.83 µM.

In the case of `COc1ccc2c(C(=O)O)cc3ccccc3c2c1OC`, the TGI was above 100 µM.

With `Cc1ccccc1C(CCCO)C(=O)O` (stereo unspecified), the TGI was above 100 µM.

Consider `COc1ccc(-c2c(C3=NCCCN3)nnn2-c2ccccc2)cc1`, for which the TGI is above 100 µM.

For a further test, the system named is HCT-116 colon. Kind of test: inhibition of tumour cell growth, NCI panel, 48 h.
`CC(C)(CN1CCCCC1)C(=O)/C=C/c1ccc(Br)cc1` came in with a TGI of 8.08 µM.

`COc1ccc2c(C(=O)O)cc3ccccc3c2c1OC` returned a TGI of 32.6 µM.

For `Cc1ccccc1C(CCCO)C(=O)O` (stereo unspecified), the TGI is above 100 µM.

As for `COc1ccc(-c2c(C3=NCCCN3)nnn2-c2ccccc2)cc1`, the TGI was above 100 µM.

A further test concerns EKVX NSCLC. Put plainly: inhibition of tumour cell growth, NCI panel, 48 h.
`CC(C)(CN1CCCCC1)C(=O)/C=C/c1ccc(Br)cc1` yielded a TGI of 9.13 µM.

With `COc1ccc2c(C(=O)O)cc3ccccc3c2c1OC`, the TGI was 40.8 µM.

`Cc1ccccc1C(CCCO)C(=O)O` (stereo unspecified) registered a TGI above 100 µM.

On to `COc1ccc(-c2c(C3=NCCCN3)nnn2-c2ccccc2)cc1`, for which the TGI is above 100 µM.

The subject of a further test is KM20L2 colon. Put plainly: inhibition of tumour cell growth, NCI panel, 48 h.
For the compound `CC(C)(CN1CCCCC1)C(=O)/C=C/c1ccc(Br)cc1`, the TGI worked out at 6.85 µM.

`COc1ccc2c(C(=O)O)cc3ccccc3c2c1OC` gave a TGI of 58.1 µM.

Consider `COc1ccc(-c2c(C3=NCCCN3)nnn2-c2ccccc2)cc1`, for which the TGI was above 100 µM.

In another test the test system is SF-268 CNS. Kind of test: inhibition of tumour cell growth, NCI panel, 48 h.
On to `CC(C)(CN1CCCCC1)C(=O)/C=C/c1ccc(Br)cc1`, for which the TGI stood at 7.08 µM.

As to `COc1ccc2c(C(=O)O)cc3ccccc3c2c1OC`, the TGI was found to be 41.4 µM.

Compound `Cc1ccccc1C(CCCO)C(=O)O` (stereo unspecified) returned a TGI above 100 µM.

With `COc1ccc(-c2c(C3=NCCCN3)nnn2-c2ccccc2)cc1`, the TGI was above 100 µM.
